Patent publication US20030165447A1, “Topical leave-on compositions containing pantothenic acid and its derivatives to reduce the need for underarm shaving” (The Procter & Gamble Company, priority 2001, published 2003)

Assay: Acid or hold stability of sample compositions held at 85° C. for 24 hours
Type: physicochemical
Conditions: heated liquid held at 85° C., 24 hour period; 3.00% pantothenic acid derivative with 25.25% aluminum zirconium trichlorohydrate
Procedure: The topical leave-on compositions of the present invention are evaluated to determine the relative acid or hold stability of selected pantothenic acid derivatives as defined herein (e.g., ethyl panthenol, panthenyl triacetate) relative to other pantothenic acid derivatives (e.g., panthenol, calcium pantothenate). In this context, acid or hold stability is found to correlate with the lack of visibly apparent crystal formation within or extending from the sample product or by the lack of any significant off-odor development, over a 24 hours period at an elevated hold temperature of 85° C.
Each sample composition is formulated with the above-described ingredients and then held at 85° C. as a heated liquid for a 24 hour period and evaluated during that that period of time for any visibly apparent crystal formations within or extending from the formulation, and for any off-odor development. The evaluated product is maintained in the heated liquid state at 85° C. during the evaluation period to assimilate the elevated processing or hold temperatures often associated with the making of such antiperspirant and deodorant products, and to assimilate those conditions that favor acid-degradation of pantothenic acid derivatives as described herein.

| SMILES | Off-odor formation | Visible crystal formation |
| --- | --- | --- |
| CCOCCCNC(=O)[C@H](O)C(C)(C)CO [ethyl panthenol] | little or no off-odor development | do not exhibit the undesirable crystal formation |
| CC(=O)OCCCNC(=O)[C@H](OC(C)=O)C(C)(C)COC(C)=O [panthenyl triacetate] | little or no off-odor development | do not exhibit the undesirable crystal formation |
